Measured values reported in ChEMBL document CHEMBL1201862, “PubChem BioAssay data set” (2004).
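Compound exposure: 48 hours, 5 concentrations, 96-well plates. At the GI50, growth is halved.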 Active and inactive are the calls of the source. Cut-off read from the data, not from the text of the source: active = GI50 up to about 1.1 µM and inactive = higher.

Columns and labels:
Assay in all cases: DTP human tumour cell line panel, 48 h
786-0 = tested on: 786-0
UACC-62 = tested on: UACC-62
ACHN = tested on: ACHN
Malme-3M = tested on: Malme-3M
TK-10 = tested on: TK-10
SR = tested on: SR
CCRF-CEM = tested on: CCRF-CEM
CAKI-1 = tested on: CAKI-1
UACC-257 = tested on: UACC-257
SK-OV-3 = tested on: SK-OV-3
HL-60 = tested on: HL-60
Hs-578T = tested on: Hs-578T
A498 = tested on: A498
UO-31 = tested on: UO-31
BT-549 = tested on: BT-549
PC-3 = tested on: PC-3
MDA-MB-231 = tested on: MDA-MB-231
OVCAR-3 = tested on: OVCAR-3
A549 = tested on: A549
SF-268 = tested on: SF-268

Measured: GI50

CC(C)(C)OC(=O)NCC(=O)NC1CC=CCC1NC(=O)CNC(=O)OC(C)(C)C (stereo not given)
inactive: 786-0 > 100 µM | UACC-62 > 100 µM | ACHN > 100 µM | Malme-3M > 100 µM | TK-10 > 100 µM | SR > 100 µM | CCRF-CEM > 100 µM | CAKI-1 > 100 µM | UACC-257 > 100 µM | SK-OV-3 > 100 µM | HL-60 > 100 µM | Hs-578T > 100 µM | A498 > 100 µM | UO-31 > 100 µM | BT-549 > 100 µM | PC-3 > 100 µM | MDA-MB-231 > 100 µM | OVCAR-3 > 100 µM | A549 > 100 µM | SF-268 > 100 µM

CC(C)(C)c1cc(C(C)(C)C)c(P=C(Cl)Cl)c(C(C)(C)C)c1 (stereo not given)
inactive: 786-0 > 100 µM | UACC-62 > 100 µM | ACHN > 100 µM | Malme-3M > 100 µM | TK-10 > 100 µM | SR > 100 µM | CCRF-CEM > 100 µM | CAKI-1 > 100 µM | UACC-257 > 100 µM | SK-OV-3 > 100 µM | HL-60 > 100 µM | Hs-578T > 100 µM | A498 > 100 µM | UO-31 > 100 µM | BT-549 > 100 µM | PC-3 > 100 µM | MDA-MB-231 > 100 µM | OVCAR-3 > 100 µM | A549 > 100 µM | SF-268 > 100 µM

Nc1nc2c(ncn2Cc2ccccc2CO)c(=O)[nH]1
inactive: 786-0 > 100 µM | UACC-62 > 100 µM | ACHN > 100 µM | Malme-3M > 100 µM | TK-10 > 100 µM | SR > 100 µM | CCRF-CEM > 100 µM | CAKI-1 > 100 µM | UACC-257 > 100 µM | SK-OV-3 > 100 µM | HL-60 > 100 µM | Hs-578T > 100 µM | A498 > 100 µM | UO-31 > 100 µM | BT-549 > 100 µM | PC-3 > 100 µM | MDA-MB-231 > 100 µM | OVCAR-3 > 100 µM | A549 > 100 µM | SF-268 > 100 µM
